Assay results published in patent publication US20040176371A1, “Novel pyrazolopyrimidinethione derivatives, preparation methods thereof and their use as therapeutics for erectile dysfunction” (priority 2001, published 2004).

Experiments:
[1] = biological target: phosphodiesterase I (PDE I); assay: Inhibitory activity against phosphodiesterase I (method of Thompson and Appleman); format: biochemical; conditions: enzyme isolated from diaphragm kidney cortex of rat
Experimental: (§1) In order to identify the effects of compounds of formula 1 according to the present invention on erectile dysfunction, inhibitory activities against phosphodiesterase V and other isozymes (I, III and VI) were evaluated in accordance with the following procedure.
(§2) Phosphodiesterases I, III and V were isolated from diaphragm kidney cortex of rat, phosphodiesterase VI was isolated from retina of rat. Inhibitory activities against the isolated enzymes were evaluated by the method of Thompson and Appleman (Thompson and Appleman, Biochemistry, 1971, 10, 311-316). A reaction mixture for enzyme activity [Total volume 100 μl: PDE enzymes (Column fraction 20˜40 μl), […] and 20 μl M calmodulin (10 μl addition for PDE I), [^3H]-cAMP, [^3H]-cGMP(1 μCi/μl), compound of formula 1 (0.01 nM˜1 μM), 50 mM Tris-HCl buffer solution (pH 7.4), 15 mM MgCl2, distilled water] was incubated in a water bath at 30° C. for 30 minutes, and then heat-denatured at 100° C. for 2 minutes to denature enzymes. After the reaction mixture was cooled down on ice, 250 μg/ml venom was added thereto. The resulting mixture was incubated at 30° C. for 10 minutes, and then 0.5 ml of cold d-H2O was added thereto to obtain a specimen. Guanine was separated from the specimen using an anion exchange resin (DEAE Sephacel A-25 anion exchange column). To measure the IC50 of specimen, radioactivity was counted by β-counter after treatment with 10 ml of scintillation cocktail solution.

[2] = biological target: phosphodiesterase III (PDE III); assay: Inhibitory activity against phosphodiesterase III (method of Thompson and Appleman); format: biochemical; conditions: enzyme isolated from diaphragm kidney cortex of rat
Experimental: as §1, §2

[3] = biological target: T1, phosphodiesterase V (PDE V) (Rattus norvegicus, UniProt O54735); assay: Inhibitory activity against phosphodiesterase V (method of Thompson and Appleman); format: biochemical; conditions: enzyme isolated from diaphragm kidney cortex of rat
T1 construct: Phosphodiesterases I, III and V were isolated from diaphragm kidney cortex of rat; from tissue; host or cells: rat 'diaphragm kidney cortex'
Experimental: as §1
as §2, with “Inhibitory activities against the isolated enzymes were evaluated by the method of Thompson and Appleman (Thompson and Appleman, Biochemistry, 1971, 10, 311-316).” left out

ICR mice = assay: Acute toxicity when administered orally to mouse; format: in vivo; conditions: single oral administration, both male and female
Experimental: In order to evaluate the toxicity of the compounds of formula 1 according to the present invention, an experiment was performed as described below.
The compound prepared in the Example 5 was administered orally to four ICR mice (2 male, 2 female) once at a dose of 128, 320, 800, 2000 and 5000 mg/kg, respectively. 7 days after the administration, mortality rate, general symptoms, changes in weight, and autopsy results were recorded.

Row | Compound | IC50 [1] | IC50 [2] | IC50 [3] | minimal lethal dose (ICR mice)
1 | CCCc1nn(C)c2c(=O)[nH]c(-c3cc(S(=O)(=O)N4CCN(C)CC4)ccc3OCC)nc12 [Sildenafil, reference compound] | 2250 nM | 1750 nM |  | 
2 | CCCOc1ccc(S(=O)(=O)N2CCN(CCO)CC2)cc1-c1nc2c(CCC)nn(C)c2c(=S)[nH]1 [Example 12, 5-{5-[4-(2-hydroxyethyl)piperazine-1-sulfonyl]-2-propoxyphenyl}-1-methyl-3-propyl-1,6-dihydropyrazolo[4,3-d]pyrimidine-7-thione] | 10 nM | 1080 nM | 0.46 nM | 
3 | CCCc1nn(C)c2c(=S)[nH]c(-c3cc(S(=O)(=O)N4CCN(C)CC4)ccc3OCC)nc12 [Example 5, 5-[2-ethoxy-5-(4-methylpiperazine-1-sulfonyl)phenyl]-1-methyl-3-propyl-1,6-dihydropyrazolo[4,3-d]pyrimidine-7-thione] | 1890 nM | 1250 nM | 0.59 nM | more than 5000 mg/kg
4 | CCCc1nn(C)c2c(=S)[nH]c(-c3cc(S(=O)(=O)N4CCN(CCO)CC4)ccc3OCC)nc12 [Example 7, 5-{2-ethoxy-5-[4-(2-hydroxyethyl)piperazine-1-sulfonyl]phenyl}-1-methyl-3-propyl-1,6-dihydropyrazolo[4,3-d]pyrimidine-7-thione] | 110 nM | 3020 nM | 0.4 nM | 
5 | CCCc1nn(C)c2c(=S)[nH]c(-c3cc(S(=O)(=O)N4CCNCC4)ccc3OCC)nc12 [Example 9, 5-[2-ethoxy-5-(piperazine-1-sulfonyl)phenyl]-1-methyl-3-propyl-1,6-dihydropyrazolo[4,3-d]pyrimidine-7-thione] | 2430 nM | 5630 nM | 0.62 nM | 
6 | CCCOc1ccc(S(=O)(=O)N2CCN(C)CC2)cc1-c1nc2c(CCC)nn(C)c2c(=S)[nH]1 [Example 10, 1-methyl-5-[5-(4-methylpiperazine-1-sulfonyl)-2-propoxyphenyl]-3-propyl-1,6-dihydropyrazolo[4,3-d]pyrimidine-7-thione] | 620 nM | 1030 nM | 0.58 nM | 
